Test results reported in PubChem BioAssay (NCI).
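Assay format: 96-well plates, 48-hour exposure. GI50 = concentration required for 50% inhibition of growth. TGI marks complete inhibition of growth.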

Legend:
Test in all cases: NCI tumour cell line growth inhibition, 48 h
SF-295 CNS = system: SF-295 CNS
A549 NSCLC = system: A549 NSCLC
K-562 leukemia = system: K-562 leukemia
HCT-15 colon = system: HCT-15 colon
SW-620 colon = system: SW-620 colon
M14 melanoma = system: M14 melanoma
COLO 205 colon = system: COLO 205 colon
CCRF-CEM leukemia = system: CCRF-CEM leukemia
EKVX NSCLC = system: EKVX NSCLC
U251 CNS = system: U251 CNS
RXF 393 renal = system: RXF 393 renal
HS 578T breast = system: HS 578T breast
A498 renal = system: A498 renal
SNB-19 CNS = system: SNB-19 CNS
NCI-H460 lung = system: NCI-H460 lung
SK-MEL-5 melanoma = system: SK-MEL-5 melanoma
HOP-92 NSCLC = system: HOP-92 NSCLC
RPMI-8226 leukemia = system: RPMI-8226 leukemia
SN12C renal = system: SN12C renal
UACC-62 melanoma = system: UACC-62 melanoma
MDA-MB-231 breast = system: MDA-MB-231 breast
SF-268 CNS = system: SF-268 CNS
HL-60(TB) leukemia = system: HL-60(TB) leukemia
IGROV1 ovarian = system: IGROV1 ovarian
NCI-H522 lung = system: NCI-H522 lung
TK-10 renal = system: TK-10 renal
NCI-H23 lung = system: NCI-H23 lung
NCI-H226 lung = system: NCI-H226 lung
MALME-3M melanoma = system: MALME-3M melanoma
UO-31 renal = system: UO-31 renal
PC-3 prostate = system: PC-3 prostate
786-0 renal = system: 786-0 renal
SK-OV-3 ovarian = system: SK-OV-3 ovarian
SF-539 CNS = system: SF-539 CNS
HCT-116 colon = system: HCT-116 colon
MCF7 breast = system: MCF7 breast
UACC-257 melanoma = system: UACC-257 melanoma
LOX IMVI melanoma = system: LOX IMVI melanoma
OVCAR-8 ovarian = system: OVCAR-8 ovarian
SNB-75 CNS = system: SNB-75 CNS
SK-MEL-2 melanoma = system: SK-MEL-2 melanoma
DU-145 prostate = system: DU-145 prostate
OVCAR-3 ovarian = system: OVCAR-3 ovarian
BT-549 breast = system: BT-549 breast
HCC-2998 colon = system: HCC-2998 colon
OVCAR-5 ovarian = system: OVCAR-5 ovarian
HOP-62 NSCLC = system: HOP-62 NSCLC
SK-MEL-28 melanoma = system: SK-MEL-28 melanoma
NCI/ADR-RES ovarian = system: NCI/ADR-RES ovarian
MOLT-4 leukemia = system: MOLT-4 leukemia

Work on `CC(=O)c1ccc(NC(=O)CSc2nnc(-c3cc(-c4ccc(C)cc4)nc4ccccc34)o2)cc1` yielded a GI50 (SF-295 CNS) of 2.18 µM, a TGI (SF-295 CNS) of 6.08 µM and a GI50 (A549 NSCLC) of 3.01 µM. It also gave a TGI (A549 NSCLC) of over 100 µM, a GI50 (K-562 leukemia) of 3.15 µM and a TGI (K-562 leukemia) of over 100 µM. For the same molecule, the GI50 (HCT-15 colon) was 4.95 µM, the TGI (HCT-15 colon) was over 100 µM and the GI50 (SW-620 colon) was 3.24 µM. The TGI (SW-620 colon) was over 100 µM, the GI50 (M14 melanoma) was 5.65 µM and the TGI (M14 melanoma) was over 100 µM. The GI50 (COLO 205 colon) was 6.54 µM, the TGI (COLO 205 colon) was over 100 µM and the GI50 (CCRF-CEM leukemia) was 4.03 µM. For the same molecule, the TGI (CCRF-CEM leukemia) was over 100 µM, the GI50 (EKVX NSCLC) was 3.13 µM and the TGI (EKVX NSCLC) was over 100 µM. It also gave a GI50 (U251 CNS) of 1.97 µM, a TGI (U251 CNS) of 3.92 µM and a GI50 (RXF 393 renal) of 2.01 µM. The TGI (RXF 393 renal) was 4.26 µM, the GI50 (HS 578T breast) was 4.06 µM and the TGI (HS 578T breast) was 39.4 µM. The GI50 (A498 renal) was 2.3 µM, the TGI (A498 renal) was 7.5 µM and the GI50 (SNB-19 CNS) was 3.87 µM. For the same molecule, the TGI (SNB-19 CNS) was 19.3 µM, the GI50 (NCI-H460 lung) was 2.36 µM and the TGI (NCI-H460 lung) was 6.04 µM. The GI50 (SK-MEL-5 melanoma) was 3.42 µM, the TGI (SK-MEL-5 melanoma) was over 100 µM and the GI50 (HOP-92 NSCLC) was 2.59 µM. For the same molecule, the TGI (HOP-92 NSCLC) was 6.3 µM, the GI50 (RPMI-8226 leukemia) was 3.37 µM and the TGI (RPMI-8226 leukemia) was over 100 µM. For the same molecule, the GI50 (SN12C renal) was 2.15 µM, the TGI (SN12C renal) was 5.45 µM and the GI50 (UACC-62 melanoma) was 24.2 µM. It also gave a TGI (UACC-62 melanoma) of over 100 µM, a GI50 (MDA-MB-231 breast) of 2.3 µM and a TGI (MDA-MB-231 breast) of 5.47 µM. For the same molecule, the GI50 (SF-268 CNS) was 3.12 µM, the TGI (SF-268 CNS) was over 100 µM and the GI50 (HL-60(TB) leukemia) was over 100 µM. The TGI (HL-60(TB) leukemia) was over 100 µM, the GI50 (IGROV1 ovarian) was 3.31 µM and the TGI (IGROV1 ovarian) was over 100 µM. It also gave a GI50 (NCI-H522 lung) of 2.39 µM, a TGI (NCI-H522 lung) of 9.06 µM and a GI50 (TK-10 renal) of 1.99 µM. The TGI (TK-10 renal) was 4.89 µM, the GI50 (NCI-H23 lung) was 3.73 µM and the TGI (NCI-H23 lung) was 61.3 µM. The GI50 (NCI-H226 lung) was 2.39 µM, the TGI (NCI-H226 lung) was 6.37 µM and the GI50 (MALME-3M melanoma) was 2.67 µM. For the same molecule, the TGI (MALME-3M melanoma) was 8.34 µM, the GI50 (UO-31 renal) was 1.75 µM and the TGI (UO-31 renal) was 4.5 µM. For the same molecule, the GI50 (PC-3 prostate) was 4.36 µM, the TGI (PC-3 prostate) was over 100 µM and the GI50 (786-0 renal) was 1.61 µM. For the same molecule, the TGI (786-0 renal) was 3.51 µM, the GI50 (SK-OV-3 ovarian) was 2.64 µM and the TGI (SK-OV-3 ovarian) was 8.22 µM. For the same molecule, the GI50 (SF-539 CNS) was 1.8 µM, the TGI (SF-539 CNS) was 3.92 µM and the GI50 (HCT-116 colon) was 2.25 µM. The TGI (HCT-116 colon) was 6.1 µM, the GI50 (MCF7 breast) was 2.69 µM and the TGI (MCF7 breast) was over 100 µM. For the same molecule, the GI50 (UACC-257 melanoma) was over 100 µM, the TGI (UACC-257 melanoma) was over 100 µM and the GI50 (LOX IMVI melanoma) was 2.64 µM. For the same molecule, the TGI (LOX IMVI melanoma) was 9.09 µM, the GI50 (OVCAR-8 ovarian) was 2.28 µM and the TGI (OVCAR-8 ovarian) was 4.9 µM. It also gave a GI50 (SNB-75 CNS) of 1.77 µM, a TGI (SNB-75 CNS) of 3.57 µM and a GI50 (SK-MEL-2 melanoma) of 12.3 µM. For the same molecule, the TGI (SK-MEL-2 melanoma) was 31.2 µM, the GI50 (DU-145 prostate) was 4.52 µM and the TGI (DU-145 prostate) was over 100 µM. It also gave a GI50 (OVCAR-3 ovarian) of 3.22 µM, a TGI (OVCAR-3 ovarian) of over 100 µM and a GI50 (BT-549 breast) of 2.44 µM. The TGI (BT-549 breast) was 7.89 µM, the GI50 (HCC-2998 colon) was over 100 µM and the TGI (HCC-2998 colon) was over 100 µM. The GI50 (OVCAR-5 ovarian) was 6.01 µM, the TGI (OVCAR-5 ovarian) was over 100 µM and the GI50 (HOP-62 NSCLC) was 2.08 µM. The TGI (HOP-62 NSCLC) was 5.7 µM, the GI50 (SK-MEL-28 melanoma) was over 100 µM and the TGI (SK-MEL-28 melanoma) was over 100 µM. The GI50 (NCI/ADR-RES ovarian) was 3.14 µM, the TGI (NCI/ADR-RES ovarian) was over 100 µM and the GI50 (MOLT-4 leukemia) was 3.31 µM. For the same molecule, the TGI (MOLT-4 leukemia) was over 100 µM.
